Four molecules from patent US20240207350A1, “COMBINATION PREPARATION CONTAINING RESVERATROL” (priority 2021, published 2024) can be followed below.

The test system of the test is Circulating human tumour cells (CTC's) characterised by EpCAM. The test can be described thus: in vitro vitality reduction of circulating tumour cells from a blood sample of a prostate carcinoma patient. Format: cell-based. The settings on record: CTCs of a prostate carcinoma patient. From the text:
A patient, suffering from a prostate carcinoma, was examined by checking a blood sample. Circulating human tumour cells (CTC's) characterised by EpCAM and additional cell surface markers have been used. The CTC's have been tested with different anti-cancer drugs. […] Furthermore, the positive effects could be shown to be dose dependent.

Consider `CCC(=O)C(CC(C)N(C)C)(c1ccccc1)c1ccccc1` (centres unmarked) [Methadone], for which, under “3 × 15 drops”, the “Concentration- and time-dependent specific in vitro vitality reduction (%) in the presence of eutherapeutic concentrations” value is 30%.

Regarding `C=C1CC[C@H](O)C/C1=C/C=C1\CCC[C@]2(C)[C@@H]([C@H](C)CCCC(C)(C)O)CC[C@@H]12` [Example 25-OH-D3, 25-OH-D3], the “Concentration- and time-dependent specific in vitro vitality reduction (%) in the presence of eutherapeutic concentrations” value is 25% (100 ng/ml) and 30% (200 ng/ml). On to `C[C@H]1[C@H](OC(=O)CCC(=O)O)O[C@@H]2O[C@@]3(C)CC[C@H]4[C@H](C)CC[C@@H]1[C@@]24OO3` [Artesunat], for which the “Concentration- and time-dependent specific in vitro vitality reduction (%) in the presence of eutherapeutic concentrations” value (eutherapeutic concentration, not specified) was found to be 60%. Consider `COc1cc(/C=C/C(=O)CC(=O)/C=C/c2ccc(O)c(OC)c2)ccc1O` [Curcumin, curcumin], for which, where the note is “450 mg”, the “Concentration- and time-dependent specific in vitro vitality reduction (%) in the presence of eutherapeutic concentrations” value came to 80%.
